Data from patent publication US20250282785A1, “PYRROLIDINONE DERIVATIVES AS INHIBITORS OF NF KAPPA B INDUCING KINASE” (priority 2022, published 2025).

Experiments:
[1] = system: p-IKKα levels in L363 (NIK translocated multiple myeloma) cells; assay: Effect of compounds on p-IKKα levels in L363 cells (AlphaLISA SureFire Ultra); type: cell-based; settings: Homo sapiens, L-363; L363 cells, BAFF stimulated, MG132, 6 h; average of values; read-out: Assay 2 IC50
Experimental: Biological Assay 2: Effect of Compounds on p-IKKα Levels in L363 (NIK Translocated Multiple Myeloma) Cells
All compounds tested were dissolved and serially diluted in DMSO, 1:3 dilution for 11 points in an Echo compatible plate. 100% DMSO is added to columns 12 and 24 of the plate to serve as high and low signal controls. This compound plate was used to spot 20 nl of compound or DMSO into a Greiner 384 well TC plate (781080). Final DMSO concentration was […] (v/v) in cell assays. Human L363 cells (ATCC) were cultured in RPMI 1640 medium supplemented with GlutaMax, non-essential amino acids, sodium pyruvate and 10% fetal bovine serum. Cells were routinely maintained at densities of 0.2×10^6 cells per ml −2×10^6 cells per ml at 37° C. in a humidified 5% CO2 atmosphere incubator. Cells were passaged twice a week splitting back to obtain the low density. The day before the assay, cells were washed twice in HBSS, resuspended in DMEM+0.5% IgG and protease free BSA (Jackson Immuno Research Laboratories), +/−250 ng/ml recombinant human B-cell activating factor (BAFF/BLyS/TNFSF13B) and incubated overnight at 37° C. in a humidified 5% CO2 atmosphere (bulk stimulation with or without BAFF). The next day, cell concentration was adjusted to 1×10^7 cells/ml in DMEM+/−250 ng/ml BAFF+/−10 uM MG132 and plated at 10 ul/well into compound or DMSO spotted 384 well TC plates. Seeded cells were incubated at 37° C. in a humidified 5% CO2 atmosphere for 6 h. After 6 h, plates were removed from the incubator and cell lysis was achieved by the addition of 2.5 μl 5× lysis buffer containing protease and phosphatase inhibitors, followed by shaking on a plate shaker at room temperature for 15 min. At the end of this incubation, lysed cells were sequentially treated and incubated with acceptor and donor bead mixes according to the manufacturer's protocol for a 1 plate/2-incubation suspension cell assay (AlphaLISA SureFire Ultra p-IKKα (Ser 176/180) Assay Kit (Perkin ElmeR). Plates were read using an EnVision® Multilabel Plate Reader (Perkin ElmeR). Within an experiment, a concentration response curve for each compound was run in duplicate. Signal obtained in the test wells was normalized using high signal (BAFF stimulated cells, DMSO, MG132) and low signal (unstimulated cells, DMSO) controls. To determine the IC50, a sigmoidal curve was fitted to the plot of % inhibition versus Log10 compound concentration.

[2] = molecular target: Recombinant Human NF-Kappab-Inducing Kinase (NIK/MAP3K14) (Homo sapiens, UniProt Q99558); assay: Inhibition of auto-phosphorylation of recombinant human NIK/MAP3K14 (AlphaScreen); type: biochemical; settings: NIK/MAP3K14 auto-phosphorylation, 5 microM ATP, 1 nM enzyme, 2 h at 25° C.; average of values; read-out: Assay 1 IC50
Recombinant Human NF-Kappab-Inducing Kinase (NIK/MAP3K14), sequence (Q99558 whole entry): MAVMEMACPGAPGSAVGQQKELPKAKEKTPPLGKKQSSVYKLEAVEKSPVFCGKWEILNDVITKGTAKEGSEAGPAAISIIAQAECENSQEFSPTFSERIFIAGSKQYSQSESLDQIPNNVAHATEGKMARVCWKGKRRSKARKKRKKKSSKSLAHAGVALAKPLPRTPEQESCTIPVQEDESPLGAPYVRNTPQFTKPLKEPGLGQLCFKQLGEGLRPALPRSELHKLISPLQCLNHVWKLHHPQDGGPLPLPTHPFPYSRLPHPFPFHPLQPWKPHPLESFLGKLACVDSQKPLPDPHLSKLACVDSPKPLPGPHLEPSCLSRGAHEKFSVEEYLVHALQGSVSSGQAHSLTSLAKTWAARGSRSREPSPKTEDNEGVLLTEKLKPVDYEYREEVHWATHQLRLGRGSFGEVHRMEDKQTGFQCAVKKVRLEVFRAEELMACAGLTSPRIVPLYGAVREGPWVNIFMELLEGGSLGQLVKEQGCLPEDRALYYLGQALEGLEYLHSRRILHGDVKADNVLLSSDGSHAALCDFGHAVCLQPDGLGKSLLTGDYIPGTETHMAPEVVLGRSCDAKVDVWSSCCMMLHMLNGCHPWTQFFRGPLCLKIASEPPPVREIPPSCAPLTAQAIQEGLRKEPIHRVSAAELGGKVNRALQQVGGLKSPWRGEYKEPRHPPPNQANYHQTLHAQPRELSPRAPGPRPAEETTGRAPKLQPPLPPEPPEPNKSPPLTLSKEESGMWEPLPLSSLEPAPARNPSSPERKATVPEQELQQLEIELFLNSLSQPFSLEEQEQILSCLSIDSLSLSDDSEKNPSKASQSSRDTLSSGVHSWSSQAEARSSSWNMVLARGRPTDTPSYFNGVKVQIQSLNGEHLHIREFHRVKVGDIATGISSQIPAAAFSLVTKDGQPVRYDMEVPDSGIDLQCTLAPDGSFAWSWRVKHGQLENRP
Experimental: Biological Assay 1: Inhibition of Auto-Phosphorylation of Recombinant Human NF-Kappab-Inducing Kinase (NIK/MAP3K14) Activity (AlphaScreen®)
NIK/MAP3K14 auto-phosphorylation activity was measured using the AlphaScreen® ((αscreen) format (Perkin ElmeR). All compounds tested were dissolved in dimethyl sulfoxide (DMSO) and further dilutions were made in assay buffer. Final DMSO concentration was 0.7% (v/v) in assays. Assay buffer was 50 mM Tris pH 7.5 containing 1 mM EGTA (ethylene glycol tetraacetic acid), 1 mM DTT (dithiothreitol), 0.1 mM Na3VO4, 5 mM MgCl2, 0.01% Tween® 20. Assays were carried out in 384 well Proxiplates (Perkin ElmeR). Incubations consisted of compound, 5 microM Adenosine-5′-triphosphate (ATP), and 1 nM NIK/MAP3K14. Incubations were initiated by addition of GST-tagged NIK/MAP3K14 enzyme, carried out for 2 h at 25° C. and terminated by addition of stop buffer containing anti-phospho-IKK Ser176/180 antibody. Protein A Acceptor and Glutathione-donor beads were added before reading using an EnVision® Multilabel Plate Reader (Perkin ElmeR). Signal obtained in the wells was normalized using high (full enzyme activity, 0.7% DMSO) and low controls (no enzyme activity, 0.7% DMSO, no ATP). IC50's were determined by fitting a sigmoidal curve to % inhibition of control versus Log10 compound concentration.

Compound: CN1CCC(O)(c2cc(-c3cccc(-c4c[nH]c5ncccc45)c3)on2)C1=O (racemic) [Example 9, (R,S)-3-(5-(3-(1H-Pyrrolo[2,3-b]pyridin-3-yl)phenyl)isoxazol-3-yl)-3-hydroxy-1-methylpyrrolidin-2-one]
- IC50 [1]: > 0.501 µM
- IC50 [2]: 0.1 to 0.5 µM

Compound: CN1CCC(O)(c2cn(-c3cccc(-c4nc(C(N)=O)c5ccccc5n4)c3)cn2)C1=O (racemic) [Example 19, (R,S)-2-(3-(4-(3-Hydroxy-1-methyl-2-oxopyrrolidin-3-yl)-1H-imidazol-1-yl)phenyl)quinazoline-4-carboxamide]
- IC50 [1]: > 0.501 µM
- IC50 [2]: < 0.1 µM

Compound: CN1CCC(O)(c2cc(-c3cccc(-c4nccc(C(N)=O)n4)c3)on2)C1=O (racemic) [Example 161, (R,S)-2-(3-(3-(3-Hydroxy-1-methyl-2-oxopyrrolidin-3-yl)isoxazol-5-yl)phenyl)pyrimidine-4-carboxamide]
- IC50 [1]: > 0.501 µM
- IC50 [2]: < 0.1 µM

Compound: CN1CCC(O)(c2cc(-c3cccc(-c4ncc5ccnc(N)c5n4)c3)on2)C1=O (racemic) [Example 165]
- IC50 [1]: > 0.501 µM
- IC50 [2]: < 0.1 µM

Compound: CN1CCC(O)(c2cc(-c3cccc(-n4nc(C(N)=O)c5ccccc54)c3)on2)C1=O (racemic) [Example 167, (R,S)-1-(3-(3-(3-Hydroxy-1-methyl-2-oxopyrrolidin-3-yl)isoxazol-5-yl)phenyl)-1H-indazole-3-carboxamide]
- IC50 [1]: 0.1 to 0.5 µM
- IC50 [2]: < 0.1 µM

Compound: CN1CCC(O)(c2cc(-c3cccc(Nc4nc5c(N)ncnc5s4)c3)on2)C1=O (racemic) [Example 176, (R,S)-3-(5-(3-((7-Aminothiazolo[5,4-d]pyrimidin-2-yl)amino)phenyl)isoxazol-3-yl)-3-hydroxy-1-methylpyrrolidin-2-one]
- IC50 [1]: > 0.501 µM
- IC50 [2]: > 0.501 µM

Compound: CN1CC[C@@](O)(c2cc(C3CCCN(c4ccc5ncnc(N)c5n4)C3)no2)C1=O (mixture of isomers) [Example 201, (3R)-3-(3-(1-(4-Aminopyrido[3,2-d]pyrimidin-6-yl)piperidin-3-yl)isoxazol-5-yl)-3-hydroxy-1-methylpyrrolidin-2-one]
- IC50 [1]: > 0.501 µM
- IC50 [2]: < 0.1 µM

Compound: CN1CC[C@](O)(c2ncc(-c3cccc(-c4cccc(C(N)=O)n4)c3)s2)C1=O (single isomer, unassigned) [Example 28]
- IC50 [1]: > 0.501 µM
- IC50 [2]: 0.1 to 0.5 µM

Compound: CN1CC[C@@](O)(c2cnn(-c3cccc(-c4cccc(C(N)=O)n4)c3)c2)C1=O (single isomer, unassigned) [Example 29]
- IC50 [1]: > 0.501 µM
- IC50 [2]: > 0.501 µM

Compound: CN1CC[C@@](O)(c2cc(-c3cccc(-c4cccc(C(N)=O)n4)c3)n(C)n2)C1=O (single isomer, unassigned) [Example 30]
- IC50 [1]: > 0.501 µM
- IC50 [2]: > 0.501 µM

Compound: CN1CC[C@@](O)(c2cc(-c3cccc(-c4cccc(C(N)=O)n4)c3)[nH]n2)C1=O (single isomer, unassigned) [Example 31]
- IC50 [1]: > 0.501 µM
- IC50 [2]: 0.1 to 0.5 µM

Compound: [2H]c1nc(N)c2nc(-c3cccc(-c4cnc([C@@]5(O)CCN(C)C5=O)s4)c3)ccc2n1 (single isomer, unassigned) [Example 32]
- IC50 [1]: > 0.501 µM
- IC50 [2]: < 0.1 µM

Compound: [2H]c1nc(N)c2nc(-c3cccc(-c4nc([C@]5(O)CCN(C)C5=O)cs4)c3)ccc2n1 (single isomer, unassigned) [Example 33]
- IC50 [1]: > 0.501 µM
- IC50 [2]: > 0.501 µM

Compound: [2H]c1nc(N)c2nc(-c3cccc(-c4n[nH]c([C@]5(O)CCN(C)C5=O)n4)c3)ccc2n1 (single isomer, unassigned) [Example 34]
- IC50 [1]: > 0.501 µM
- IC50 [2]: > 0.501 µM

Compound: [2H]c1nc(N)c2nc(-c3cccc(-c4cc([C@@]5(O)CCN(C)C5=O)n[nH]4)c3)ccc2n1 (single isomer, unassigned) [Example 37]
- IC50 [1]: > 0.501 µM
- IC50 [2]: > 0.501 µM

Compound: [2H]c1nc(N)c2nc(-c3cccc(-c4cc([C@]5(O)CCN(C)C5=O)n[nH]4)c3)ccc2n1 (single isomer, unassigned) [Example 38]
- IC50 [1]: > 0.501 µM
- IC50 [2]: < 0.1 µM

Compound: [2H]c1nc(N)c2nc(-c3cccc(-c4ncc([C@]5(O)CCN(C)C5=O)o4)c3)ccc2n1 (single isomer, unassigned) [Example 39]
- IC50 [1]: > 0.501 µM
- IC50 [2]: > 0.501 µM

Compound: [2H]c1nc(N)c2nc(-c3cccc(-c4ncc([C@@]5(O)CCN(C)C5=O)o4)c3)ccc2n1 (single isomer, unassigned) [Example 40]
- IC50 [1]: > 0.501 µM
- IC50 [2]: > 0.501 µM

Compound: [2H]c1nc(N)c2nc(-c3cccc(-c4nc([C@]5(O)CCN(C)C5=O)co4)c3)ccc2n1 (single isomer, unassigned) [Example 41]
- IC50 [1]: > 0.501 µM
- IC50 [2]: > 0.501 µM

Compound: [2H]c1nc(N)c2nc(-c3cccc(-c4cc([C@]5(O)CCN(C)C5=O)nn4C)c3)ccc2n1 (single isomer, unassigned) [Example 43]
- IC50 [1]: > 0.501 µM
- IC50 [2]: 0.1 to 0.5 µM

Compound: [2H]c1nc(N)c2nc(-c3cccc(-c4cc([C@@]5(O)CCN(C)C5=O)nn4C)c3)ccc2n1 (single isomer, unassigned) [Example 44]
- IC50 [1]: > 0.501 µM
- IC50 [2]: > 0.501 µM

Compound: Cc1cc(N2CCC[C@@H](c3cc([C@]4(O)CCN(C)C4=O)on3)C2)nc2c(N)ncnc12 (single isomer, unassigned) [Example 199]
- IC50 [1]: > 0.501 µM
- IC50 [2]: < 0.1 µM

Compound: Cc1cc(N2CCC[C@H](c3cc([C@]4(O)CCN(C)C4=O)on3)C2)nc2c(N)ncnc12 (single isomer, unassigned) [Example 200]
- IC50 [1]: > 0.501 µM
- IC50 [2]: < 0.1 µM

Compound: CN1CC[C@@](O)(c2cc([C@@H]3CCCN(c4ccc5ncnc(N)c5n4)C3)no2)C1=O (single isomer, unassigned) [Example 202]
- IC50 [1]: > 0.501 µM
- IC50 [2]: < 0.1 µM

Compound: CN1CC[C@@](O)(c2cc([C@H]3CCCN(c4ccc5ncnc(N)c5n4)C3)no2)C1=O (single isomer, unassigned) [Example 203]
- IC50 [1]: > 0.501 µM
- IC50 [2]: < 0.1 µM

Compound: CN1CC[C@@](O)(c2cc(-c3cccc(-c4sc(Br)nc4C(N)=O)c3)no2)C1=O (single isomer, unassigned) [Example 214]
- IC50 [1]: > 0.501 µM
- IC50 [2]: > 0.501 µM

Compound: CN1CC[C@@](O)(c2cc(-c3cccc(-c4nc5c(c(C(N)=O)n4)C4CCC(C5)O4)c3)[nH]n2)C1=O (stereo in doubt) [Example 174, (5R,8S)-2-(3-(5-((R)-3-Hydroxy-1-methyl-2-oxopyrrolidin-3-yl)-1H-pyrazol-3-yl)phenyl)-6,7,8,9-tetrahydro-5H-5,8-epoxycyclohepta[d]pyrimidine-4-carboxamide]
- IC50 [1]: > 0.501 µM
- IC50 [2]: 0.1 to 0.5 µM

Compound: Cc1nc(N)c2nc(-c3cccc(-c4cc([C@]5(O)CCN(C)C5=O)on4)c3)ccc2n1 [Example 1, (R)-3-(3-(3-(4-Amino-2-methylpyrido[3,2-d]pyrimidin-6-yl)phenyl)isoxazol-5-yl)-3-hydroxy-1-methylpyrrolidin-2-one]
- IC50 [1]: 0.1 to 0.5 µM
- IC50 [2]: < 0.1 µM

Compound: [2H]c1nc(N)c2nc(-c3cccc(-c4cc([C@]5(O)CCN(C)C5=O)on4)c3)ccc2n1 [Example 2, (R)-3-(3-(3-(4-Aminopyrido[3,2-d]pyrimidin-6-yl-2-d)phenyl)isoxazol-5-yl)-3-hydroxy-1-methylpyrrolidin-2-one]
- IC50 [1]: 0.1 to 0.5 µM
- IC50 [2]: < 0.1 µM
